Like-named read-outs stand apart in the source and are kept apart here.
Key:
[1] = cited from earlier work
Cytotoxicity MTT assay = format: cell-based, Human; conditions: human, HEK 293 cells, read-out: cell viability
Method: (§1) In vitro cytotoxicity studies were performed for DT(Ch)2 in the concentration range of 0.5–50 μg/mL against HEK 293 cell lines seeded in 96-well plates. The experimental procedure followed was in accordance with the previously reported literature ([32]). […] Cell cultures were grown in DMEM (Dulbecco’s modified eagle medium, high glucose) and the culture was supplemented with 1% penicillin streptomycin and 10% FBS (fetal bovine serum). The cells were incubated with different compound concentrations in a 5% CO2 incubator at 37°C. Following the addition of MTT [3-(4,5-dimethylthiazol-2-yl)-2,5-diphenyl-2H-tetrazolium bromide] to each cell (100 μL), the systems were incubated for an additional 4 h. The cell viability was reported in accordance with the mitochondrial activity measured via absorbance at 570 nm. The experiments were performed in triplicates.

HEK 293 cells = experiment: Cytotoxicity MTT assay; format: cell-based, Human; conditions: 0.5–50 μg/mL, after 48 h of incubation
Method: as §1

Hemolysis assay = format: cell-based; conditions: human, red blood cells (washed RBC pellet resuspended in PBS), pH 7.4; RBCs, 0.125–2 mg/mL of ligand
Method: In accordance with the previous literature, heparinized blood from healthy volunteers was used for the hemolysis assay ([33]). Blood serum was separated by centrifugation and the obtained RBC pellet was washed with PBS (pH = 7.4) repeatedly. The pellet was finally resuspended in PBS and added in equal amounts to different vials. Similarly, varying concentrations of the ligand in equal volume were incubated with the RBC pellet in the ratio of 8:2 at 37°C. The Triton X-100 and phosphate buffer saline as positive and negative control, respectively, were also incubated with RBCs under similar conditions. A total of 100 μL of solvent was centrifuged and removed at each time point: 15 min, 1, 2, 4, and 24 h. The absorbance of the supernatant was measured at 541 nm wavelength in a 96-well plate by a Synergy 2 Multi-Mode Reader (BioTek Instruments, United States). The experiments were carried out in triplicates and the extent of hemolysis was calculated according to the following formula:
Hemolysisratio=(λ(test)-λ(negativecontrol))/(λ(positivecontrol)-λ(negativecontrol))×100%

Aβ aggregates = conditions: cited from earlier work

In the case of `CNc1ccc(-c2nc3ccc(O)cc3s2)cc1` [PiB, Pittsburgh compound B], the “ratio of brain2min/brain30min” value [1] is listed as 12.
In the case of `CN(C)c1ccc(/C=C/C(=O)c2ccc(OCCNC(=O)CN(CCN(CCN(CC(=O)O)CC(=O)NCCOc3ccc(C(=O)/C=C/c4ccc(N(C)C)cc4)cc3)CC(=O)O)CC(=O)O)cc2)cc1` [DT(Ch)2, 6,9-bis(carboxymethyl)-14-(4-[(E)-3-(4-(dimethylamino)phenyl)acryloyl]phenoxy)-3-(2-[(2-(4-[(E)-3-(4-(dimethylamino)phenyl)acryloyl]phenoxy)ethyl)amino]-2-oxoethyl)-11-oxo-3,6,9,12-tetraazatetradecanoic acid], the viability (Cytotoxicity MTT assay; throughout the concentration range and observation time) is reported as ~85%, the viability (Cytotoxicity MTT assay; up to 24 h) is reported as 88 to 95% and the “toxicity (MTT assay)” value (HEK 293 cells) is reported as < 17%. The hemolysis (Hemolysis assay) was < 5%.
In the case of `CN(C)c1ccc(C=CC(=O)c2ccc(I)cc2)cc1` [^125I-DMIC], the Kd (Aβ aggregates) is listed as 4.2 nM.
In the case of `O=C([O-])CN(CCN(CC(=O)[O-])CC(=O)[O-])CCN(CC(=O)[O-])CC(=O)[O-].[99Tc+4]` [^99mTc–DTPA], the brain uptake ([1]; after 30 min, known value, no reference given) is listed as 0.04%.
